Assay results reported in patent publication US8431706B2, “1,2,3,4-tetrahydroqinoline derivative useful for the treatment of diabetes” (Eli Lilly and Company, priority 2011, dated 2013).

Legend:
Gal4 PPARα = target: T1, Gal4 PPARα (Homo sapiens, UniProt Q07869); test: Gal4 PPARα reporter functional assay in CV1 cells; format: cell-based; details: examined up to 10 μM; luciferase reporter; 24 hours
T1 construct: expressed in transfected cells; host or cells: CV1 (African green monkey kidney)
T1 sequence (Q07869 239-466 limits assumed): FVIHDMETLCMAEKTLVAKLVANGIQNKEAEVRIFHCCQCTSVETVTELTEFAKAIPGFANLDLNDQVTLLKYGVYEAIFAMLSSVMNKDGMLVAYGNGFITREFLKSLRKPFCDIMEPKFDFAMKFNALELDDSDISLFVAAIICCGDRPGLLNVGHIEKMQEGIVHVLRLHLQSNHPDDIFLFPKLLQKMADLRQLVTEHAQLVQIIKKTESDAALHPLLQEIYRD
Text: (§1) Gal4 PPARα, Gal4 PPARδ, and PPARγ reporter functional assays are also used to monitor the selectivity of the exemplified compound. CV1 cells, which are derived from the renal tissue of an African green monkey, are transfected with various receptor and reporter plasmids using Fugene. For the Gal4 PPARα and PPARδ assays, a reporter plasmid containing five tandem copies of the yeast transcription protein Gal4 response element, cloned upstream of a firefly luciferase gene driven by the major late promoter of adenovirus, is transfected together with a Simian Virus 40 (SV40) driven plasmid constitutively expressing a hybrid protein containing the Gal4 DNA binding domain (DBD), and either the PPARα or PPARδ ligand binding. For the PPARγ assay, plasmids encoding PPARγ and RXRα, both driven by a cytomegalovirus (CMV) promoter are transfected together with a plasmid containing luciferase reporter cDNA driven by the TK promoter and a receptor response element (2×PPRE). Cells are transfected in T225 cm^2 cell culture flasks in DMEM media with 5% charcoal-stripped FBS. […] After 24 hours incubation with the compound, cells are lysed and luciferase activity is determined as a measure of receptor activation by luminescence. […] The maximum percent stimulation is determined versus maximum stimulation obtained with 10 μM of an appropriate PPAR agonist reference compound. […]

Gal4 PPARδ = target: T2, Gal4 PPARδ (Homo sapiens, UniProt Q03181); test: Gal4 PPARδ reporter functional assay in CV1 cells; format: cell-based; details: examined up to 10 μM; luciferase reporter; 24 hours
T2 construct: expressed in transfected cells; host or cells: CV1 (African green monkey kidney)
T2 sequence (Q03181 211-439 limits assumed): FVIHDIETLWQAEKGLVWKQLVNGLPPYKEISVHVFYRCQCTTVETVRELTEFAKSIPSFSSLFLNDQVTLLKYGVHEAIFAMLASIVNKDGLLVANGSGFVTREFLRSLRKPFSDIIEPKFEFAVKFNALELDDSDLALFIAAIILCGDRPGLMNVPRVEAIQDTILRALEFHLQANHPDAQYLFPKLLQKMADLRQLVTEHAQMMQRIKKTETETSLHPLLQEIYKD
Text: as §1

PPARγ = target: T3, PPARγ (Homo sapiens, UniProt P37231); test: PPARγ reporter functional assay in CV1 cells; format: cell-based; details: examined up to 10 μM; luciferase reporter; 24 hours
T3 sequence (P37231 1-505): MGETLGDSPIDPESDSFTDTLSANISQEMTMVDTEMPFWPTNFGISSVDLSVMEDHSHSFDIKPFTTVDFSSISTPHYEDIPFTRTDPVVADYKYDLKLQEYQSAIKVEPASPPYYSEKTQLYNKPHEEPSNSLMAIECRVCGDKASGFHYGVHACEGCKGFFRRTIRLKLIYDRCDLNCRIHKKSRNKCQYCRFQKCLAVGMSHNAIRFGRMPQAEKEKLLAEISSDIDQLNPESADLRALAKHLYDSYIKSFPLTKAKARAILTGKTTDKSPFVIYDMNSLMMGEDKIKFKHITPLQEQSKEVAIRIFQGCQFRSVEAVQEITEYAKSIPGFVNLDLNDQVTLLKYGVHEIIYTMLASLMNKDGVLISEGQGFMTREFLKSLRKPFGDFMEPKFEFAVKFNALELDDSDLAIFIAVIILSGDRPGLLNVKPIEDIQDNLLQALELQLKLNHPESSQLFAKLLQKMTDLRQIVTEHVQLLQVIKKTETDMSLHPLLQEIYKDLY
T3 sequence (P19793 1-462 partner): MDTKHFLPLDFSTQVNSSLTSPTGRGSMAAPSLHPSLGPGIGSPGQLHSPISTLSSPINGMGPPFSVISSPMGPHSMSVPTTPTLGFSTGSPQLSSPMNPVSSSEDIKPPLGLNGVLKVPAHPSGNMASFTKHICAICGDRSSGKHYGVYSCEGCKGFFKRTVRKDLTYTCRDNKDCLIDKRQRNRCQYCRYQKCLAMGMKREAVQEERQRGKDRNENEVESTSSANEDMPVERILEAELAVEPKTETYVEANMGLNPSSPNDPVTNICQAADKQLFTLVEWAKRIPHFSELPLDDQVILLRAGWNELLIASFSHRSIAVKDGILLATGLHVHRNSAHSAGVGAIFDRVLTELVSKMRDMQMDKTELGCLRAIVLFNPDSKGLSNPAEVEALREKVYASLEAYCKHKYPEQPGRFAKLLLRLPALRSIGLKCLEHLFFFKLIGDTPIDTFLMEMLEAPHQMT
Text: as §1

human GPR40 = human GPR40 (Homo sapiens, UniProt O14842); test: cell-based
Chain of human GPR40 (O14842 whole entry): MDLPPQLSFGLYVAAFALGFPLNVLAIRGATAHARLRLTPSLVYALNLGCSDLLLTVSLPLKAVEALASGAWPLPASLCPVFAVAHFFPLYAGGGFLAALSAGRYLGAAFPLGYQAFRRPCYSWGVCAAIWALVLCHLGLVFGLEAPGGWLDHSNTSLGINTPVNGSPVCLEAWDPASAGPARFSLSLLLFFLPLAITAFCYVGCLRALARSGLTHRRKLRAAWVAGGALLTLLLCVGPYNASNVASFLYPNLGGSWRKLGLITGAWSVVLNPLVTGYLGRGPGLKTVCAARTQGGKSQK

`CC#C[C@@H](CC(=O)O)c1ccc(OCc2ccc(CN3CCCc4cccc(OC)c43)s2)cc1` [Example 1, (3S)-3-[4-[[5-[(8-Methoxy-3,4-dihydro-2H-quinolin-1-yl)methyl]-2-thienyl]methoxy]phenyl]hex-4-ynoic acid] was tested, and the “functional activation of PPARα” value (Gal4 PPARα) was “No functional activation”, the “functional activation of PPARδ” value (Gal4 PPARδ) was “No functional activation” and the “functional activation of PPARγ” value (PPARγ) was “No functional activation”. The EC50 (human GPR40; EC50, HEK293 cells over expressing human GPR40, 0.1% fatty acid free BSA, FLIPR) was 152 nM and the EC50 (human GPR40; EC50 value for the Calcium Flux Primary assay, HEK293 cells over expressing human GPR40, bound stated) was less than 1000 nM.
